Results taken from patent US10617734B2, “STAT3 and ERK signal pathway inhibitor comprising mogrosides and analogs thereof” (BEIJING UNIVERSITY OF AGRICULTURE, priority 2014, dated 2020).

Key:
[1] = test system: phosphorylated ERK1/2 (P-ERK1/2); assay: Western Blotting of phosphorylated ERK1/2 in U937 cells; assay type: cell-based; details: 10 μmol/L, 24 hours
Experimental: (§1) The inhibition of the STAT3 and ERK signal pathways achieved by Mogroside I E1, Mogroside II A2 and mogrol was detected by Western Blotting, specifically:
Group 1: histiocytic lymphoma U937 cells (1×10^6 cells/well) were inoculated into a 6-well culture plate for staying overnight, and 0 and 10 μmol/L of Mogroside I E1, Mogroside II A2 and mogrol were added respectively, and the culture was continued for 24 hours;
(§2) After the termination of the cell culture, the culture solution was removed, and the residue was washed with PBS (0.01 mol/L, pH 7.4), and then a cell lysis solution containing protease inhibitors was added at an amount of 50 μl/well, and the mixture was placed in an ice bath for lysis at 4° C. for 30 min and then centrifuged at 14000 r/min for 10 min, and then total proteins were obtained from the supernatant;
(§3) The protein concentrations were measured with bovine serum albumin (BSA) as the standard. 50 μg of the total proteins was separated by polyacrylamide gel electrophoresis with 12% […], electrophoretically transferred to a PVDF membrane (polyvinylidene fluoride membrane), and blocked for 1 h by 5% of skim milk (containing 0.1% of Tween 20), and then antibodies p-STAT3 (Tyr705) and p-Erk1/2 as well as β-actin were added, and the primary antibody was incubated at 4° C. overnight (β-actin was used as reference in loading amount); the membrane was washed for 3 times with TBS-T, 5 min each time; secondary antibody marked by horseradish peroxidase (HRP) was added for incubation at room temperature for 1 h, the membrane was washed for 3 times with a wash solution (TBS-T), 10 min each time, and then ECL was added for incubation in dark for 5 min, and subsequently, a fluorescence imaging analyzer was used for image development and scanning analysis, and the results of Western Blotting detection are shown in FIGS. 4 to 6.

[2] = test system: phosphorylated ERK1/2 (P-ERK1/2); assay: Western Blotting of phosphorylated ERK1/2 in A875 cells; assay type: cell-based, human; details: melanoma A875 cells, 10 μmol/L, 24 hours
Experimental: as §1
Group 2: human melanoma A875 cells (1×10^6 cells/well) were inoculated into a 6-well culture plate for staying overnight, and 0 and 10 μmol/L of Mogroside I E1, Mogroside II A2 and mogrol were added respectively, and the culture was continued for 24 hours;
as §2, §3

[3] = test system: lymphoma U937 cells; assay: Cell apoptosis, Annexin V-FITC/PI, flow cytometer; assay type: cell-based; details: 10 μmol/L, 24 h
Experimental: Lymphoma U937 cells, human melanoma A875 cells and leukemia cells K562 in logarithmic growth phase were selected, and after the respective culture with 0 and 10 μmol/L of the mogrosides and analogs thereof (i.e. Mogroside I E1, Mogroside II A2 and mogrol) for 24 h, cells were collected and washed twice with 200 μl of cold PBS, and then the cells were collected again; 100 μl of binding buffer was added for re-suspending the cells, and after the addition of 2 μl of Annexin V-FITC and well mixing, the resulting mixture was placed in dark at room temperature for 10 min, and then 5 μl of propidium iodide (PI) was added and then well mixed; the mixture was placed in dark at room temperature for 10 min, and detected by flow cytometer, and the results are shown in FIGS. 13-15.

[4] = test system: leukemia cells K562; assay: MTT colorimetric experiment, cell growth inhibition; assay type: cell-based, human; details: leukemia cells K562, 0.1, 1, 10, 100, 200 and 250 μmol/L, MTT after 24 h
Experimental: MTT colorimetric experiments were performed after 24 h, respectively: prior to the finish of each experiment, 15 μl of MTT solution in a concentration of 5 mg/ml was added to each well, and the culture was continued in dark at 37° C. for 4 h, then 150 μl of DMSO was added to each well and oscillating in a shaker for 10 min, and then the residue was placed in a microplate reader to detect the optical density OD) at 490 nm, and the inhibition rate was calculated according to the following formula: cell growth inhibition rate (control group OD490—test group OD490)/control group OD490×100%.

C[C@H](CC[C@@H](O)C(C)(C)O)[C@H]1CC[C@@]2(C)[C@@H]3CC=C4[C@@H](CC[C@H](O)C4(C)C)[C@]3(C)[C@H](O)C[C@]12C [mogrol]
expression level of phosphorylated ERK1/2 (P-ERK1/2) [1]: significantly decreased | expression level of phosphorylated ERK1/2 (P-ERK1/2) [2]: significantly decreased | cell apoptosis [3]: induce the apoptosis | cell growth inhibition rate [4]: inhibitory effect on the proliferation
